Source: US20250230226A1, “PLXDC1/PLXDC2 ACTIVATORS AND THEIR USE IN THE TREATMENT OF BLOOD VESSEL DISORDERS” (THE REGENTS OF THE UNIVERSITY OF CALIFORNIA, priority 2019, published 2025)

Tests used:
[1] = test system: CT26.CL25 colon cancer tumor endothelial cells; assay: Colon CT26 ex vivo model of tumor angiogenesis; type: cell-based, mouse; conditions: for cytotoxicity at 20 µM / cytotoxicity at 40 µM: Mus musculus, Endothelial cell, 48 h, read-out: Cell death
Procedure, shortened: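 Pieces of CT26 mouse tumor (~0.075 mm³) embedded in Matrigel and cultured in endothelial growth medium at 37 °C, 5% CO2 until endothelial outgrowth appeared (about 7 days), then treated. About 48 h after drug addition, live/dead staining with fluorescein diacetate and propidium iodide was imaged in green and red channels.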

[2] = test system: LL/2 lung cancer tumor endothelial cells; assay: Lung LL2 ex vivo model of tumor angiogenesis; type: cell-based, mouse; conditions: for 48 hrs (morphology observations): LL/2 tumor endothelial cells; for cytotoxicity at 20 µM / cytotoxicity at 40 µM: Mus musculus, Endothelial cell, 48 h, read-out: Cell death; for Cell death: drug treatment for two days, ratio of red area to total endothelial cell area
Procedure, shortened: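 LL2 mouse tumor fragments (~0.075 mm³) embedded in Matrigel and cultured in endothelial growth medium at 37 °C until endothelial outgrowth (~4 days) before treatment. Cell death assessed e.g. 48 h after drug by fluorescein diacetate (live)/propidium iodide (dead) staining and red/green fluorescence imaging.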

| SMILES | 48 hrs (morphology observations after 48 hours) ([1]; Conc. 20 μm) | cytotoxicity at 20 µM [1] [%] | 48 hrs (morphology observations) ([2]; 20 μm) | cytotoxicity at 20 µM [2] [%] | Cell death ([2]; 20 μm) [%] | 48 hrs (morphology observations after 48 hours) ([1]; Conc. 40 μm) | cytotoxicity at 40 µM [1] [%] | Cell death ([2]; 40 μm) [%] | 48 hrs (morphology observations) ([2]; 40 μm) | cytotoxicity at 40 µM [2] [%] |
| --- | --- | --- | --- | --- | --- | --- | --- | --- | --- | --- |
| CCc1ccc(S(=O)(=O)c2cnc3ccc(OC(F)(F)F)cc3c2-n2cnc(C)c2)cc1 [Compound 117] | *** (100% of endothelial cells vesicularize in cell shape) | 100 | *** (more than 50% but less than 100% of endothelial cells vesicularize in cell shape) | 100 |  |  |  |  |  |  |
| CCc1ccc(S(=O)(=O)c2cnc3ccc(OC(F)(F)F)cc3c2-n2ccnc2)cc1 [Compound 118] | *** (100% of endothelial cells vesicularize in cell shape) | 100 | *** (more than 50% but less than 100% of endothelial cells vesicularize in cell shape) | 100 |  |  |  |  |  |  |
| CCCCOc1ccc(S(=O)(=O)c2cnc3ccc(OC(F)(F)F)cc3c2N2CCC(N3CCCCC3)CC2)cc1 [Compound 119] | 0 | 50 | *** (more than 50% but less than 100% of endothelial cells vesicularize in cell shape) |  | 100 |  |  |  |  |  |
| COc1ccc(S(=O)(=O)c2cnc3ccc(SC)cc3c2N2CCC(N3CCCCC3)CC2)cc1OC [Compound 121] |  |  |  |  |  | *** (100% of endothelial cells vesicularize in cell shape) | 40 | 50 |  |  |
| CCCCOc1ccc(S(=O)(=O)c2cnc3ccc(OC(F)(F)F)cc3c2N2CCCN(C)CC2)cc1 [Compound 151] |  |  |  |  |  | **** (100% of endothelial cells vesicularize in cell shape and look flattened in morphology (indicating disintegration of the cell body)) | 100 |  | **** (100% of endothelial cells vesicularize in cell shape and look flattened in morphology (indicating disintegration of the cell body)) | 100 |
| CCCCOc1ccc(S(=O)(=O)c2cnc3ccc(OC(F)(F)F)cc3c2N2CCC(N3CCC(O)CC3)CC2)cc1 [Compound 152] |  |  | * (50% or less of cells vesicularize in cell shape) |  | 20 | ** (more than 50% but less than 100% of endothelial cells vesicularize in cell shape) | 30 |  |  |  |
| COc1ccc(S(=O)(=O)c2cnc3ccc(SC)cc3c2N2CCCN(C)CC2)cc1OC [Compound 154] |  |  |  |  |  | * (50% or less of cells vesicularize in cell shape) | 30 |  | * (50% or less of cells vesicularize in cell shape) | 30 |
| CCCCN(CCCC)c1c(S(=O)(=O)c2ccc(OC)cc2)cnc2ccc(C(=O)OCC)cc12 [Compound 155] |  |  |  |  |  | *** (100% of endothelial cells vesicularize in cell shape) | 20 |  | *** (more than 50% but less than 100% of endothelial cells vesicularize in cell shape) | 80 |
| CCOC(=O)c1ccc2ncc(S(=O)(=O)c3ccc(OC)cc3)c(N(CCO)CCO)c2c1 [Compound 156] |  |  |  |  |  | 0 | 0 |  |  | 30 |
| CCCCOc1ccc(S(=O)(=O)c2cnc3ccc(C(=O)OCC)cc3c2N2CCC(N3CCCCC3)CC2)cc1 [Compound 157] |  |  |  |  |  | **** (100% of endothelial cells vesicularize in cell shape and look flattened in morphology (indicating disintegration of the cell body)) | 60 | 100 | *** (more than 50% but less than 100% of endothelial cells vesicularize in cell shape) |  |
| CCCCOc1ccc(S(=O)(=O)c2cnc3ccc(C(=O)OCC)cc3c2N2CCCN(C)CC2)cc1 [Compound 158] |  |  |  |  |  | **** (100% of endothelial cells vesicularize in cell shape and look flattened in morphology (indicating disintegration of the cell body)) | 100 |  | **** (100% of endothelial cells vesicularize in cell shape and look flattened in morphology (indicating disintegration of the cell body)) | 100 |
| CCCCOc1ccc(S(=O)(=O)c2cnc3ccc(SC)cc3c2N2CCC(N3CCCCC3)CC2)cc1 [Compound 159] |  |  |  |  |  | **** (100% of endothelial cells vesicularize in cell shape and look flattened in morphology (indicating disintegration of the cell body)) | 100 |  | **** (100% of endothelial cells vesicularize in cell shape and look flattened in morphology (indicating disintegration of the cell body)) | 100 |
| CCCCOc1ccc(S(=O)(=O)c2cnc3ccc(SC)cc3c2N2CCCN(C)CC2)cc1 [Compound 160] |  |  |  |  |  | **** (100% of endothelial cells vesicularize in cell shape and look flattened in morphology (indicating disintegration of the cell body)) | 100 |  | **** (100% of endothelial cells vesicularize in cell shape and look flattened in morphology (indicating disintegration of the cell body)) | 100 |
| CCCCOc1ccc(S(=O)(=O)c2cnc3ccc(C(=O)OCC)cc3c2N2CCC(N3CCC(O)CC3)CC2)cc1 [Compound 161] |  |  |  |  |  | **** (100% of endothelial cells vesicularize in cell shape and look flattened in morphology (indicating disintegration of the cell body)) | 100 | 90 | **** (100% of endothelial cells vesicularize in cell shape and look flattened in morphology (indicating disintegration of the cell body)) |  |
| CCCCOc1ccc(S(=O)(=O)c2cnc3ccc(SC)cc3c2N2CCC(N3CCC(O)CC3)CC2)cc1 [Compound 162] |  |  |  |  |  | *** (100% of endothelial cells vesicularize in cell shape) |  | 70 | *** (more than 50% but less than 100% of endothelial cells vesicularize in cell shape) |  |
| CCCCOc1ccc(S(=O)(=O)c2cnc3ccc([S+](C)[O-])cc3c2N2CCCN(C)CC2)cc1 (centres unmarked) [Compound 163] |  |  |  |  |  | **** (100% of endothelial cells vesicularize in cell shape and look flattened in morphology (indicating disintegration of the cell body)) | 100 | 95 | **** (100% of endothelial cells vesicularize in cell shape and look flattened in morphology (indicating disintegration of the cell body)) |  |
| CCCCOc1ccc(S(=O)(=O)c2cnc3ccc(S(C)(=O)=O)cc3c2N2CCCN(C)CC2)cc1 [Compound 164] |  |  |  |  |  | **** (100% of endothelial cells vesicularize in cell shape and look flattened in morphology (indicating disintegration of the cell body)) | 100 | 95 | **** (100% of endothelial cells vesicularize in cell shape and look flattened in morphology (indicating disintegration of the cell body)) |  |
| CCN(CC)C(=O)c1ccc2ncc(S(=O)(=O)c3ccc(OC)cc3)c(N3CCCN(C)CC3)c2c1 [Compound 165] |  |  |  |  |  | 0 | 10 |  | * (50% or less of cells vesicularize in cell shape) | 10 |
| CCN(CC)CCNC(=O)c1ccc2ncc(S(=O)(=O)c3ccc(OC)cc3)c(N3CCCN(C)CC3)c2c1 [Compound 166] |  |  |  |  |  | *** (100% of endothelial cells vesicularize in cell shape) | 60 | 10 | 0 |  |
| CCCCOc1ccc(S(=O)(=O)c2cnc3ccc(C(=O)OCC)cc3c2N2CCSCC2)cc1 [Compound 191] |  |  |  |  |  | 0 | 10 | 30 |  |  |
| CCCCOc1ccc(S(=O)(=O)c2cnc3ccc(C(=O)NC(C)C)cc3c2N2CCCN(C)CC2)cc1 [Compound 192] |  |  |  |  |  | 0 | 10 | 60 | *** (more than 50% but less than 100% of endothelial cells vesicularize in cell shape) |  |
| CCCCOc1ccc(S(=O)(=O)c2cnc3ccc(C(=O)N(CC)CC)cc3c2N2CCC(N3CCCCC3)CC2)cc1 [Compound 201] |  |  |  |  |  | * (50% or less of cells vesicularize in cell shape) | 10 | 30 | 0 |  |
| CCCCOc1ccc(S(=O)(=O)c2cnc3ccc(C(=O)NCCO)cc3c2N2CCC(N3CCCCC3)CC2)cc1 [Compound 202] |  |  |  |  |  | 0 | 10 |  |  | 30 |
| CCCCOc1ccc(S(=O)(=O)c2cnc3ccc(SC)cc3c2N2CCCN(CCN3CCCCC3)CC2)cc1 [Compound 206] |  |  | 0 |  | 30 | **** (100% of endothelial cells vesicularize in cell shape and look flattened in morphology (indicating disintegration of the cell body)) | 100 |  |  |  |
| CCCCOc1ccc(S(=O)(=O)c2cnc3ccc([S+](C)[O-])cc3c2N2CCC(N3CCCC(O)C3)CC2)cc1 (centres unmarked) [Compound 208] |  |  |  |  |  | 0 | 20 | 50 |  |  |
| CCCCOc1ccc(S(=O)(=O)c2cnc3ccc([S+](C)[O-])cc3c2N2CCCN(CCN3CCCCC3)CC2)cc1 (centres unmarked) [Compound 209] |  |  |  |  |  | *** (100% of endothelial cells vesicularize in cell shape) | 90 | 60 | * (50% or less of cells vesicularize in cell shape) |  |
